According to patent US8466145B2, “Dipeptidyl peptidase IV inhibitors” (Orchid Chemicals & Pharmaceuticals Limited, priority 2009, dated 2013):

Key:
[1] = target: T1, human recombinant Dipeptidyl peptidase IV enzyme (hrDPP IV) (Homo sapiens, UniProt P27487); assay: DPP IV assay, cleavage of H-Gly-Pro-AMC by human recombinant DPP-IV enzyme; type: biochemical; conditions: for inhibition at 0.3 µM: 300 nM compound concentration
T1 construct: purchased R&D systems
Procedure: DPP IV activity was determined by the cleavage rate of 7-amino 4-methylcoumarin (AMC) from the substrate H-Gly-Pro-AMC. In brief, the assay was conducted by adding 3 ng of human recombinant Dipeptidyl peptidase IV enzyme (hrDPP IV, available commercially from R&D systems) in 70 μL of the assay buffer (25 mM HEPES, 140 mM NaCl and 1% BSA, pH 7.8) to a 96 well black flat bottom microtitre plate. Test compounds were added as 10 μL additions to all wells except blank and total activity wells. After incubation of test substance with enzyme for 60 minutes at room temperature, 10 μL of 100 μM substrate H-Gly-Pro-AMC was added. After mixing, the plate was left for 20 minutes at room temperature. Then the reaction was terminated by addition of 10 μL of 25% glacial acetic acid. Fluorescence was measured using Spectra Max Gemini XS (Molecular Devices, USA) at an excitation filter of 360 nm and emission filter of 460 nm.
Test compounds dissolved in DMSO were diluted with assay buffer at different concentrations and tested in duplicates. Percentage inhibition was calculated with respect to total activity. IC50 value was calculated using Prism Software.

T1 sequence (P27487 whole entry): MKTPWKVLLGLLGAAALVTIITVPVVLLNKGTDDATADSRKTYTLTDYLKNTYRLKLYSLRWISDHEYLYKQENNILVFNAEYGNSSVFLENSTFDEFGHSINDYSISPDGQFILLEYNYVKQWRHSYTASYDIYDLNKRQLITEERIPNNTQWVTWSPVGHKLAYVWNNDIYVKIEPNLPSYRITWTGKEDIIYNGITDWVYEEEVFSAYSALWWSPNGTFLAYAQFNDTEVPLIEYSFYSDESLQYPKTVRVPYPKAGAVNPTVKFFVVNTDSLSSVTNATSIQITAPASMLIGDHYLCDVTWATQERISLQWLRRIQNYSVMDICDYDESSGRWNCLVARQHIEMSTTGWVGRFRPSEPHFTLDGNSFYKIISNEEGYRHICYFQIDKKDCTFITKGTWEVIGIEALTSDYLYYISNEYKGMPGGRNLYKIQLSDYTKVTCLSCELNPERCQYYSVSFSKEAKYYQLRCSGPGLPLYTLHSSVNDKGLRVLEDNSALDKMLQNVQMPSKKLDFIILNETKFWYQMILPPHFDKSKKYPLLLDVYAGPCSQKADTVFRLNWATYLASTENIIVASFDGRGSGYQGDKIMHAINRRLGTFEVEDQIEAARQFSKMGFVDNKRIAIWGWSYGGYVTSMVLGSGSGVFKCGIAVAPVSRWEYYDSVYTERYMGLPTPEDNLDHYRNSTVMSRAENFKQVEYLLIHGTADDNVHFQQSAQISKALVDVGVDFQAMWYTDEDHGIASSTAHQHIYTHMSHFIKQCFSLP

| SMILES | IC50 [1] [nM] | melting point [°C] | inhibition at 0.3 µM [1] [%] |
| --- | --- | --- | --- |
| CC1(C)[C@H](CNS(=O)(=O)c2ccc(F)cc2)CC[C@]1(C)NCC(=O)N1C[C@@H](F)C[C@H]1C#N [Example 20] | 105 | 75 to 78 |  |
| CC1(C)[C@@H](CNC(=O)C2CCC(F)(F)CC2)CC[C@@]1(C)NCC(=O)N1C[C@@H](F)C[C@H]1C#N [Example 22, N-(((1S,3R)-3-(2-((2S,4S)-2-Cyano-4-fluoropyrrolidin-1-yl)-2-oxoethylamino)-2,2,3-trimethylcyclopentyl)methyl)-4,4-difluorocyclohexane carboxamide] |  | 193 to 195 | 72.7 |
| CC1(C)[C@H](CNC(=O)C2CCC(F)(F)CC2)CC[C@]1(C)NCC(=O)N1C[C@@H](F)C[C@H]1C#N [Example 23, N-(((1R,3S)-3-(2-((2S,4S)-2-Cyano-4-fluoropyrrolidin-1-yl)-2-oxoethylamino)-2,2,3-trimethylcyclopentyl)methyl)-4,4-difluorocyclohexane carboxamide] |  | 189 to 194 | 86.2 |
| CC1(C)[C@@H](CNc2ncccc2C#N)CC[C@@]1(C)NCC(=O)N1C[C@@H](F)C[C@H]1C#N [Example 26, 2-(((1S,3R)-3-(2-((2S,4S)-2-Cyano-4-fluoropyrrolidin-1-yl)-2-oxoethylamino)-2,2,3-trimethylcyclopentyl)methylamino)nicotinonitrile] |  | 96 to 99 | 63.2 |
| CC1(C)[C@@H](CNc2ccc(C(F)(F)F)cn2)CC[C@@]1(C)NCC(=O)N1C[C@@H](F)C[C@H]1C#N [Example 27, (2S,4S)-4-Fluoro-1-(2-((1R,3S)-1,2,2-trimethyl-3-((5-(trifluoromethyl)pyridin-2-ylamino)methyl)cyclopentylamino)acetyl)pyrrolidine-2-carbonitrile] |  | 52 to 58 | 47.4 |
| CC1(C)[C@@H](CS(=O)(=O)c2ccc(S(C)(=O)=O)cc2)CC[C@@]1(C)NCC(=O)N1C[C@@H](F)C[C@H]1C#N [Example 42, (2S,4S)-4-Fluoro-1-(2-((1R,3S)-1,2,2-trimethyl-3-((4-(methylsulfonyl)phenylsulfonyl)methyl)cyclopentylamino)acetyl)pyrrolidine-2-carbonitrile] | 91.3 | 220 to 224 |  |
| CC1(C)[C@@H](CS(=O)(=O)c2ccc(S(C)(=O)=O)cc2)CC[C@@]1(C)NCC(=O)N1CCC[C@H]1C#N [Example 44, (S)-1-(2-((1R,3S)-1,2,2-Trimethyl-3-((4-(methylsulfonyl)phenylsulfonyl)methyl)cyclopentylamino)acetyl)pyrrolidine-2-carbonitrile] | 582 | 162 to 166 |  |
| CC1(C)[C@H](CS(=O)(=O)c2ccc(S(C)(=O)=O)cc2)CC[C@]1(C)NCC(=O)N1CCC[C@H]1C#N [Example 46, (S)-1-(2-((1S,3R)-1,2,2-Trimethyl-3-((4-(methylsulfonyl)phenylsulfonyl)methyl)cyclopentylamino)acetyl)pyrrolidine-2-carbonitrile] |  | 158 to 160 | 40.9 |
| Cc1noc([C@H]2CC[C@@](C)(NCC(=O)N3C[C@@H](F)C[C@H]3C#N)C2(C)C)n1 [Example 50, (2S,4S)-4-Fluoro-1-(2-((1R,3S)-1,2,2-trimethyl-3-(3-methyl-1,2,4-oxadiazol-5-yl)cyclopentylamino)acetyl)pyrrolidine-2-carbonitrile] |  | 147 to 151 | 15 |
| Cc1noc([C@@H]2CC[C@](C)(NCC(=O)N3C[C@@H](F)C[C@H]3C#N)C2(C)C)n1 [Example 51, (2S,4S)-4-Fluoro-1-(2-((1S,3R)-1,2,2-trimethyl-3-(3-methyl-1,2,4-oxadiazol-5-yl)cyclopentylamino)acetyl)pyrrolidine-2-carbonitrile] | 91.4 | 160 to 163 |  |
| Cc1nc(C[C@H]2CC[C@@](C)(NCC(=O)N3C[C@@H](F)C[C@H]3C#N)C2(C)C)no1 [Example 54, (2S,4S)-4-Fluoro-1-(2-((1R,3R)-1,2,2-trimethyl-3-((5-methyl-1,2,4-oxadiazol-3-yl)methyl)cyclopentylamino)acetyl)pyrrolidine-2-carbonitrile] |  | 121 to 123 | 64.9 |
| CC(C)(C)c1nc(C[C@@H]2CC[C@](C)(NCC(=O)N3C[C@@H](F)C[C@H]3C#N)C2(C)C)no1 [Example 58, (2S,4S)-1-(2-((1S,3S)-3-((5-tert-Butyl-1,2,4-oxadiazol-3-yl)methyl)-1,2,2-trimethylcyclopentylamino)acetyl)-4-fluoropyrrolidine-2-carbonitrile] |  | 152 to 154 | 91.4 |
| CC1(C)[C@H](Cc2noc(C3CCCCC3)n2)CC[C@]1(C)NCC(=O)N1C[C@@H](F)C[C@H]1C#N [Example 59, (2S,4S)-1-(2-((1S,3S)-3-((5-Cyclohexyl-1,2,4-oxadiazol-3-yl)methyl)-1,2,2-trimethylcyclopentylamino)acetyl)-4-fluoropyrrolidine-2-carbonitrile] |  | 152 to 153 | 67.7 |

Next, values leading:

| IC50 [1] [nM] | melting point [°C] | inhibition at 0.3 µM [1] [%] | SMILES |
| --- | --- | --- | --- |
| 215 | 84 to 87 |  | CC1(C)[C@@H](Cn2nccn2)CC[C@@]1(C)NCC(=O)N1C[C@@H](F)C[C@H]1C#N [Example 10, (2S,4S)-1-(2-((1R,3S)-3-((2H-1,2,3-Triazol-2-yl)methyl)-1,2,2-trimethylcyclopentylamino)acetyl)-4-fluoropyrrolidine-2-carbonitrile] |
| 37.2 ± 3.67 | 142 to 144 |  | CC1(C)[C@H](Cn2nccn2)CC[C@]1(C)NCC(=O)N1C[C@@H](F)C[C@H]1C#N [Example 12, (2S,4S)-1-(2-((1S,3R)-3-((2H-1,2,3-Triazol-2-yl)methyl)-1,2,2-trimethylcyclopentylamino)acetyl)-4-fluoropyrrolidine-2-carbonitrile] |
|  | 240 to 279 | 60.5 | CC1(C)[C@@H](Cn2cc(CO)nn2)CC[C@@]1(C)NCC(=O)N1C[C@@H](F)C[C@H]1C#N [Example 15, (2S,4S)-4-Fluoro-1-(2-((1R,3S)-3-((4-(hydroxymethyl)-1H-1,2,3-triazol-1-yl)methyl)-1,2,2-trimethyleyclopentylamino)acetyl)pyrrolidine-2-carbonitrile] |
| 32.5 | 76 to 78 |  | CC1(C)[C@H](Cn2cc(CO)nn2)CC[C@]1(C)NCC(=O)N1C[C@@H](F)C[C@H]1C#N [Example 16, (2S,4S)-4-Fluoro-1-(2-((1S,3R)-3-((4-(hydroxymethyl)-1H-1,2,3-triazol-1-yl)methyl)-1,2,2-trimethylcyclopentylamino)acetyl)pyrrolidine-2-carbonitrile] |
|  | 154 to 157 | 84.9 | CC1(C)[C@H](CNS(C)(=O)=O)CC[C@]1(C)NCC(=O)N1C[C@@H](F)C[C@H]1C#N [Example 18, N-(((1R,3S)-3-(2-((2S,4S)-2-Cyano-4-fluoropyrrolidin-1-yl)-2-oxoethylamino)-2,2,3-trimethylcyclopentyl)methyl)methanesulfonamide] |
| 183 | 126 to 128 |  | CC1(C)[C@@H](CN2CCCS2(=O)=O)CC[C@@]1(C)NCC(=O)N1C[C@@H](F)C[C@H]1C#N [Example 28, (2S,4S)-1-(2-((1R,3S)-3-[(1,1-Dioxidoisothiazolidin-2-yl)methyl]-1,2,2-trimethylcyclopentylamino)acetyl)-4-fluoropyrrolidine-2-carbonitrile] |
|  | 108 to 112 | 31.9 | CC1(C)[C@@H](CN2CCCC2)CC[C@@]1(C)NCC(=O)N1C[C@@H](F)C[C@H]1C#N [Example 36, (2S,4S)-4-Fluoro-1-(2-((1R,3S)-1,2,2-trimethyl-3-(pyrrolidin-1-ylmethyl)cyclopentylamino)acetyl)pyrrolidine-2-carbonitrile] |
| 22.4 | 123 to 126 |  | CC1(C)[C@H](CN2CCCC2)CC[C@]1(C)NCC(=O)N1C[C@@H](F)C[C@H]1C#N [Example 37, (2S,4S)-4-Fluoro-1-(2-((1S,3R)-1,2,2-trimethyl-3-(pyrrolidin-1-ylmethyl)cyclopentylamino)acetyl)pyrrolidine-2-carbonitrile] |
|  | 130 to 135 | 42.6 | CC1(C)[C@@H](CN2CC[C@@H](O)C2)CC[C@@]1(C)NCC(=O)N1C[C@@H](F)C[C@H]1C#N [Example 38, (2S,4S)-4-fluoro-1-(2-((1R,3S)-3-(((R)-3-hydroxypyrrolidin-1-yl)methyl)-1,2,2-trimethylcyclopentylamino)acetyl)pyrrolidine-2-carbonitrile] |
|  | 100 to 103 | 45.9 | CC1(C)[C@@H](CN2CCCCC2)CC[C@@]1(C)NCC(=O)N1C[C@@H](F)C[C@H]1C#N [Example 39, (2S,4S)-4-Fluoro-1-(2-((1R,3S)-1,2,2-trimethyl-3-(piperidin-1-ylmethyl)cyclopentylamino)acetyl)pyrrolidine-2-carbonitrile] |
